Values quoted from earlier work in PMC3066546, “Development of modified nucleosides that have supremely high anti-HIV activity and low toxicity and prevent the emergence of resistant HIV mutants” (Proceedings of the Japan Academy. Series B, Physical and …, 2011).
Where two headings read alike, the source gives them in different places.

Columns and labels:
[1] = tested on: 41/215 drug-resistant HIV; set-up: method as in PMID 11087576, PMID 11577734, PMID 15200030; conditions: MAGI assay
L74V drug-resistant HIV = tested on: L74V drug-resistant HIV; set-up: method as in PMID 11087576, PMID 11577734, PMID 15200030; conditions: MAGI assay
HXB2 (wild type HIV) = tested on: HXB2 (wild type HIV); set-up: method as in PMID 11087576, PMID 11577734, PMID 15200030; conditions: MAGI assay
[2] = tested on: 41/69/ 125/SG drug-resistant HIV; set-up: method as in PMID 11087576, PMID 11577734, PMID 15200030; conditions: MAGI assay
M184V drug-resistant HIV = tested on: M184V drug-resistant HIV; set-up: method as in PMID 11087576, PMID 11577734, PMID 15200030; conditions: MAGI assay
[3] = tested on: MDR (multidrug-resistant HIV); conditions: MAGI assay
KH65R drug-resistant HIV = tested on: KH65R drug-resistant HIV; set-up: method as in PMID 11087576, PMID 11577734, PMID 15200030; conditions: MAGI assay
HIV-1LAI = conditions: MTT assay, MT-4 cells
HIV = tested on: HIV; set-up: method as in PMID 7764216; conditions: Table 1; for EC50: anti-HIV
[4] = cytotoxic concentration, Table 1
HIV-1MDR = tested on: HIV-1MDR; set-up: method as in PMID 18487070; conditions: Table 7; read-out: Anti-HIV activity (MAGI assay, µg) HIV-1MDR
HIV-1M184V = tested on: HIV-1M184V; set-up: method as in PMID 18487070; conditions: Table 7; read-out: Anti-HIV activity (MAGI assay, µg) HIV-1M184V
HIV-1wild = tested on: HIV-1wild; set-up: method as in PMID 18487070; conditions: Table 7; read-out: Anti-HIV activity (MAGI assay, µg) HIV-1wild
ICR mice = conditions: for Mortality (%): six-week-old ICR male mice
M184I drug-resistant HIV = tested on: M184I drug-resistant HIV; set-up: method as in PMID 11087576, PMID 11577734, PMID 15200030; conditions: MAGI assay

In the case of `O=c1[nH]cnc2c1ncn2[C@H]1CC[C@@H](CO)O1` [ddI, reference compound], the EC50 [1] is listed as 3600 nM, the EC50 (L74V drug-resistant HIV) is listed as 19500 nM and the EC50 (HXB2 (wild type HIV)) is listed as 3900 nM. For the same compound, the EC50 [2] was 12200 nM, the EC50 (M184V drug-resistant HIV) was 10100 nM and the EC50 [3] was 25 µM. For the same compound, the EC50 (KH65R drug-resistant HIV) was 12700 nM and the CC50 (Hela cells) was greater than 100 µM.
For `[N-]=[N+]=N[C@]1(CO)O[C@@H](n2ccc(N)nc2=O)C[C@@H]1O` [4′-C-azido-2′-deoxycytidine], the CC50 (MT-4 cells; Table 2) is listed as 210 nM and the EC50 (HIV-1LAI; Table 2) is listed as 4 nM.
In the case of `C#C[C@]1(CO)O[C@@H](n2ccc(N)nc2=O)C[C@@H]1O` [L-4′-C-ethynyl-2′-deoxycytidine], the EC50 (HIV-1LAI; Table 2) is given as greater than 400000 nM.
In the case of `C[C@]1(CO)O[C@@H](n2cnc3c(N)ncnc32)C[C@@H]1O` [C00001 Ad, 4′-C-methyl-2′-deoxyadenosine], the “SI (CC50/EC50)” value (HIV) is given as 1.0, the EC50 (HIV) is given as 2.6 µM and the CC50 (MT-4 cells; Table 2) is given as 2600 nM. For the same compound, the EC50 (HIV-1LAI; Table 2) was 2600 nM and the CC50 [4] was 2.6 µM.
For `C#C[C@]1(CO)O[C@@H](n2cc(C)c(=O)[nH]c2=O)C[C@@H]1O` [4′-C-ethynylthymidine], the CC50 (MT-4 cells; Table 2) is given as greater than 400000 nM and the EC50 (HIV-1LAI; Table 2) is given as 830 nM.
In the case of `Cc1cn([C@H]2CC[C@@](C)(CO)O2)c(=O)[nH]c1=O` [C00003 Th], the “SI (CC50/EC50)” value (HIV) is listed as “∼1”, the EC50 (HIV) is listed as greater than 500 µM and the CC50 [4] is listed as greater than 500 µM.
For `C#C[C@@]1(CO)CC[C@H](n2cnc3c(N)nc(F)nc32)O1` [4′Edd2FA, 2′,3′-dideoxy-4′-C-ethynyl-2-fluoroadenosine], the EC50 (HIV-1MDR) is listed as 8.7 µM, the EC50 (HIV-1M184V) is listed as 97 µM and the EC50 (HIV-1wild) is listed as 940 nM.
For `Cc1cn([C@H]2C[C@H](O)[C@@](C)(CO)O2)c(=O)[nH]c1=O` [C00001 Th, 4′-C-methylthymidine], the EC50 (HIV) is given as 7.2 µM, the CC50 (MT-4 cells; Table 2) is given as 104000 nM and the EC50 (HIV-1LAI; Table 2) is given as 7200 nM. For the same compound, the CC50 [4] was 104 µM.
For `C#C[C@]1(CO)O[C@@H](n2cnc3c(O)ncnc32)C[C@@H]1O` [4′EdI, 2′-deoxy-4′-C-ethynylinosine], the “Mortality (%)” value (ICR mice; intraveneous administration, 1 mg/Kg) is listed as 0%, the “Mortality (%)” value (ICR mice; intraveneous administration, 3 mg/Kg) is listed as 0% and the “Mortality (%)” value (ICR mice; intraveneous administration, 10 mg/Kg) is listed as 0%. For the same compound, the “Mortality (%)” value (ICR mice; intraveneous administration, 100 mg/Kg) was 0%, the “Mortality (%)” value (ICR mice; oral administration, 1 mg/Kg) was 0% and the “Mortality (%)” value (ICR mice; oral administration, 3 mg/Kg) was 0%. The “Mortality (%)” value (ICR mice; oral administration, 10 mg/Kg) was 0%, the “Mortality (%)” value (ICR mice; oral administration, 100 mg/Kg) was 0% and the survival of mice (ICR mice; single dosage of 3–100 mg kg−1, both intravenous and oral) was “All eight mice survived”. The EC50 [1] was 1300 nM, the EC50 (L74V drug-resistant HIV) was 610 nM and the EC50 (HXB2 (wild type HIV)) was 810 nM. The CC50 (MT-4 cells; Table 3) was 216000 nM, the EC50 [2] was 2200 nM and the EC50 (M184V drug-resistant HIV) was 1600 nM. The EC50 [3] was 0.51 µM, the EC50 (KH65R drug-resistant HIV) was 250 nM and the EC50 (HIV-1LAI; Table 3) was 150 nM. For the same compound, the CC50 (Hela cells; Table 4, Hela cells) was greater than 200 µM and the EC50 (M184I drug-resistant HIV) was 1500 nM.
For `Nc1ccn([C@H]2CC[C@@H](CO)O2)c(=O)n1` [ddC, reference compound], the EC50 (L74V drug-resistant HIV) is given as 1500 nM, the EC50 (HXB2 (wild type HIV)) is given as 200 nM and the EC50 [2] is given as 1300 nM. The EC50 (M184V drug-resistant HIV) was 2200 nM, the EC50 [3] was 5.5 µM and the EC50 (KH65R drug-resistant HIV) was 3000 nM. For the same compound, the CC50 (Hela cells) was greater than 100 µM.
For `C[C@@]1(CO)CC[C@H](n2cnc3c(N)ncnc32)O1` [C00003 Ad], the “SI (CC50/EC50)” value (HIV) is listed as 13, the EC50 (HIV) is listed as 30 µM and the CC50 [4] is listed as 400 µM.
In the case of `C#C[C@]1(CO)O[C@@H](n2cc(C)c(=O)[nH]c2=O)[C@@H](O)[C@@H]1O` [4′-C-ethynylarabinofuranosylthymine], the CC50 (MT-4 cells) is given as greater than 400000 nM and the EC50 (HIV-1LAI; Table 2) is given as 119000 nM.
For `N#C[C@]1(CO)O[C@@H](n2cnc3c(=O)[nH]c(N)nc32)C[C@@H]1O` [C00004 G], the CC50 (MT-4 cells; Table 3) is given as 34 nM and the EC50 (HIV-1LAI; Table 3) is given as 0.188 nM.
For `C[C@@]1(CO)C=C[C@H](n2ccc(N)nc2=O)O1` [C00002 Cy], the EC50 (HIV) is listed as 350 µM and the CC50 [4] is listed as 350 µM.
For `Nc1ccn([C@H]2C[C@H](O)[C@](CO)(CF)O2)c(=O)n1` [4′-C-fluoromethyl-2′-deoxycytidine], the CC50 (MT-4 cells; Table 2) is given as 120 nM and the EC50 (HIV-1LAI; Table 2) is given as 6.8 nM.
For `Cc1cn([C@H]2C=C[C@@H](CO)O2)c(=O)[nH]c1=O` [d4T, 2′,3′-didehydro-3′-deoxythymidine, reference compound], the EC50 (HIV-1MDR) is listed as 64 µM, the “SI (CC50/EC50)” value (HIV) is listed as greater than 120 and the EC50 (HIV) is listed as 4.1 µM. The EC50 (HIV-1M184V) was 5.6 µM, the EC50 (HIV-1wild) was 7600 nM and the CC50 [4] was greater than 500 µM.
In the case of `C=C[C@]1(CO)O[C@@H](n2cc(C)c(=O)[nH]c2=O)C[C@@H]1O` [4′-C-vinylthymidine], the CC50 (MT-4 cells; Table 2) is given as greater than 400000 nM and the EC50 (HIV-1LAI; Table 2) is given as greater than 400000 nM.
In the case of `C#C[C@@]1(CO)C=C[C@H](n2cnc3c(N)nc(F)nc32)O1` [4′Ed42FA, 2′,3′-didehydrodideoxy-4′-C-ethynyl-2-fluoroadenosine], the EC50 (HIV-1MDR) is given as 0.15 µM, the EC50 (HIV-1M184V) is given as 1.8 µM and the EC50 (HIV-1wild) is given as 800 nM.
